# Measurements as given in patent US8940720B2, “Macrocycles as factor XIa inhibitors” (Bristol-Myers Squibb Company, priority 2010, dated 2015).
# Where a name gives a salt, the structure may show the parent alone.
# Target: purified human Factor XIa (Homo sapiens (Human), UniProt P03951)
# Assay: Factor XIa enzyme inhibition assay (chromogenic substrate S-2366)
# Type: biochemical
# Settings: substrate S-2366, pH 7.4
# Experimental: The effectiveness of compounds of the present invention as inhibitors of the coagulation Factors XIa, VIIa, IXa, Xa, XIIa, plasma kallikrein or thrombin, can be determined using a relevant purified serine protease, respectively, and an appropriate synthetic substrate. The rate of hydrolysis of the chromogenic or fluorogenic substrate by the relevant serine protease was measured both in the absence and presence of compounds of the present invention. […] A decrease in the rate of absorbance or fluorescence change in the presence of inhibitor is indicative of enzyme inhibition. Such methods are known to one skilled in the art. The results of this assay are expressed as the inhibitory constant, Ki.
# Values of Ki were determined by allowing the protease to react with the substrate in the presence of the inhibitor. Reactions were allowed to go for periods of 20-180 minutes (depending on the protease) and the velocities (rate of absorbance or fluorescence change versus time) were measured. The following relationships were used to calculate Ki values: (vo−vs)/vs=I/(Ki(1+S/Km)) for a competitive inhibitor with one binding site; or vs/vo=A+((B−A)/1+((IC50/(I)n))); and Ki=IC50/(1+S/Km) for a competitive inhibitor where: […]
# Chain of purified human Factor XIa (P03951 388-625): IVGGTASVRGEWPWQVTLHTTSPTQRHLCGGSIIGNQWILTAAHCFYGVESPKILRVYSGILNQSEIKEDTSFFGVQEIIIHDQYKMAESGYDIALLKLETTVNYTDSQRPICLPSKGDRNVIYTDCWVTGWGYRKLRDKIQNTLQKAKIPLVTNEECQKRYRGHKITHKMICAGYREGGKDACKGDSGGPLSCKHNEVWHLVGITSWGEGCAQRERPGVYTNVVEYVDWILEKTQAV
# Chain of purified human Factor XIa (P03951 19-387 partner): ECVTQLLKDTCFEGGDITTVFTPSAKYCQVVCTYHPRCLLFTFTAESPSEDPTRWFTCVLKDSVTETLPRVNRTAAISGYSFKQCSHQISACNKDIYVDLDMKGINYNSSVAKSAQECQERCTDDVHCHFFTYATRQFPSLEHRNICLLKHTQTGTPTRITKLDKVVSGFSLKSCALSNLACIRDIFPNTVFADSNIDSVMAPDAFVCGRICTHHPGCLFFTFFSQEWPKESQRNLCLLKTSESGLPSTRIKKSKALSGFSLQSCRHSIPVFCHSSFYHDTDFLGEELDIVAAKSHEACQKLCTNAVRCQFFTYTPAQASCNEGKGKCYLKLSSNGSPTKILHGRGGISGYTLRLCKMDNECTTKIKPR
row,SMILES,Ki
1,COC(=O)Nc1ccc2c(c1)NC(C(=O)OC)(C(F)(F)F)CCCC[C@H](NC(=O)/C=C/c1cc(Cl)ccc1-n1cnnn1)c1nc-2c[nH]1 (stereo partly shown) [Example I-104],435 nM
2,"COC(=O)Nc1ccc2c(c1)/N=C/CCCC[C@H](NC(=O)/C=C/c1cc(Cl)ccc1-n1cnnn1)c1nc-2c(F)[nH]1 [Example I-107, {(E)-(S)-14-[(E)-3-(5-Chloro-2-tetrazol-1-yl-phenyl)-acryloylamino]-17-fluoro-8,16,18-triaza-tricyclo[13.2.1.0^2,7]octadeca-1(17),2,4,6,8,15(18)-hexaen-5-yl}-carbamic acid methyl ester, trifluoroacetic acid salt]",29 nM
3,COC(=O)Nc1ccc2c(c1)N(C(=O)OC)CCCCC[C@H](NC(=O)/C=C/c1cc(Cl)ccc1-n1cnnn1)c1nc-2c[nH]1 [Example I-108],3870 nM
4,COC(=O)Nc1ccc2c(c1)NC(C(N)=O)C(C)CCC[C@H](NC(=O)/C=C/c1cc(Cl)ccc1-n1cnnn1)c1nc-2c[nH]1 (stereo partly shown) [Example I-114],296 nM
5,CCOC(=O)CN1CCCC[C@H](NC(=O)/C=C/c2cc(Cl)ccc2-n2cnnn2)c2nc(c[nH]2)-c2ccc(NC(=O)OC)cc2C1 [Example I-121],736 nM
6,COC(=O)Nc1ccc2c(c1)NC(=O)CC/C=C/C[C@H](NC(=O)c1ccc3c(c1)CCC[C@@H]3N)c1nc-2c[nH]1 [Example I-153],1650 nM
7,"Cc1cc(F)c(C(=O)N[C@H]2C/C=C/CCC(=O)Nc3cc(NC(=O)OCCN(C)C)ccc3-c3nc2[nH]c3Cl)c(F)c1 [Example I-183, [(E)-(S)-18-Chloro-15-(2,6-difluoro-4-methyl-benzoylamino)-9-oxo-8,17,19-triaza-tricyclo[14.2.1.0^2,7]nonadeca-1(18),2,4,6,12,16(19)-hexaen-5-yl]-carbamic acid 2-dimethylamino-ethyl ester, 2 TFA]",4950 nM
8,COC(=O)Nc1ccc2c(c1)NC(C(F)(F)F)CC/C=C/C[C@H](NC(=O)/C=C/c1cc(Cl)ccc1-n1cnnn1)c1nc-2c[nH]1 (stereo partly shown) [Example I-211],2170 nM
9,"CCOC(=O)[C@H]1CCCC[C@H](NC(=O)/C=C/c2cc(Cl)ccc2-n2cnnn2)c2nc(c(C)[nH]2)-c2ccc(NC(=O)OC)cc2N1 [Example I-242, (9R,14S)-14-[(E)-3-(5-Chloro-2-tetrazol-1-yl-phenyl)-acryloylamino]-5-methoxycarbonylamino-17-methyl-8,16,18-triaza-tricyclo[13.2.1.0^2,7]octadeca-1(17),2,4,6,15(18)-pentaene-9-carboxylic acid ethyl ester, bis-trifluoroacetic acid salt]",456 nM
10,COC(=O)Nc1ccc2c(c1)CC(C(=O)N(C)C)CCCC[C@H](NC(=O)/C=C/c1cc(Cl)ccc1-n1cnnn1)c1nc-2c[nH]1 (stereo partly shown) [Example I-258],947 nM
11,COC(=O)Nc1ccc2c(c1)NC(=O)CCCC[C@H](NC(=O)c1ccc3cccnc3c1)c1nc-2c[nH]1 [Example I-262],675 nM
12,"COC(=O)Nc1ccc2c(c1)C(=O)C(F)(F)CCCC[C@H](NC(=O)/C=C/c1cc(Cl)ccc1-n1cnnn1)c1nc-2c[nH]1 [Example I-270, {(S)-14-[(E)-3-(5-Chloro-2-tetrazol-1-yl-phenyl)-acryloylamino]-9,9-difluoro-8-oxo-16,18-diaza-tricyclo[13.2.1.0^2,7]octadeca-1(17),2,4,6,15(18)-pentaen-5-yl}-carbamic acid methyl ester, TFA salt]",1740 nM

# Other lines, results leading:
row,Ki,SMILES
1,< 5 nM,"COC(=O)Nc1ccc2c(c1)N[C@@H](CO)CCCC[C@H](NC(=O)/C=C/c1cc(Cl)ccc1-n1cnnn1)c1nc-2c[nH]1 [Example I-77, {(9R,14S)-14-[(E)-3-(5-Chloro-2-tetrazol-1-yl-phenyl)-acryloylamino]-9-hydroxymethyl-8,16,18-triaza-tricyclo[13.2.1.0^2,7]octadeca-1(17),2,4,6,15(18)-pentaen-5-yl}-carbamic acid methyl ester, 2 TFA salt]"
2,< 5 nM,"COC(=O)Nc1ccc2c(c1)NCCCCC[C@H](NC(=O)/C=C/c1cc(Cl)ccc1-n1cnnn1)c1nc-2c(C#N)[nH]1 [Example I-115, {(S)-14-[(E)-3-(5-Chloro-2-tetrazol-1-yl-phenyl)-acryloylamino]-17-cyano-8,16,18-triaza-tricyclo[13.2.1.0^2,7]octadeca-1(17),2,4,6,15(18)-pentaen-5-yl}-carbamic acid methyl ester, 2 TFA salt]"
3,< 5 nM,O=C(/C=C/c1cc(Cl)ccc1-n1cnnn1)N[C@H]1CCCCCNc2cc(NC(=O)OC[C@H]3CCCO3)ccc2-c2c[nH]c1n2 [Example I-124]
4,< 5 nM,"COC(=O)Nc1ccc2c(c1)NC(=O)CCCC[C@H](NC(=O)/C=C/c1cc(Cl)ccc1-n1cnnn1)C1=NC=C2O1 [Example I-134, Methyl N-[(14S)-14-[(2E)-3-[5-chloro-2-(1H-1,2,3,4-tetrazol-1-yl)phenyl]prop-2-enamido]-9-oxo-18-oxa-8,16-diazatricyclo[13.2.1.0^2,7]octadeca-1(17),2(7),3,5,15-pentaen-5-yl]carbamate, trifluoroacetic acid salt]"
5,< 5 nM,COC(=O)Nc1ccc2c(c1)NC(=O)CC/C=C/C[C@H](NC(=O)c1ccc3c(c1)CCNC3)c1nc-2c[nH]1 [Example I-151]
6,21 nM,COC(=O)Nc1ccc2c(c1)NC(=O)CC/C=C/C[C@H](NC(=O)c1ccc3c(c1)CCC[C@H]3N)c1nc-2c[nH]1 [Example I-152]
7,< 5 nM,O=C(/C=C/c1cc(Cl)ccc1-n1cnnn1)N[C@H]1C/C=C/CCC(=O)Nc2ccc(F)cc2-c2nc1[nH]c2Cl [Example I-227]
8,< 5 nM,"CCOC(=O)[C@H]1CCCC[C@H](NC(=O)/C=C/c2cc(Cl)ccc2-n2cnnn2)c2nc(c(C#N)[nH]2)-c2ccc(NC(=O)OC)cc2N1 [Example I-251, (9R,14S)-14-[(E)-3-(5-Chloro-2-tetrazol-1-yl-phenyl)-acryloylamino]-17-cyano-5-methoxycarbonylamino-8,16,18-triaza-tricyclo[13.2.1.0^2,7]octadeca-1(17),2,4,6,15(18)-pentaene-9-carboxylic acid ethyl ester, 2 TFA]"
9,133 nM,COC(=O)Nc1ccc2c(c1)NCCCCC[C@H](NC(=O)/C=C/c1c(C(C)=O)ccc(Cl)c1F)c1nc-2c(C#N)[nH]1 [Example I-265]
10,9 nM,COC(=O)Nc1ccc2c(c1)NCCCCC[C@H](NC(=O)/C=C/c1cc(C)ccc1-n1cnnn1)c1nc-2c(C#N)[nH]1 [Example I-268]
11,< 5 nM,COCCOC(=O)Nc1ccc2c(c1)N[C@@H](C(=O)OC)CCCC[C@H](NC(=O)/C=C/c1cc(Cl)ccc1-n1cnnn1)c1nc-2c(C#N)[nH]1 [Example I-278]
12,102 nM,COC(=O)c1ccc2c(c1)-c1c[nH]c(n1)[C@@H](NC(=O)/C=C/c1cc(Cl)ccc1-n1cnnn1)C/C=C/CCC(=O)N2 [Example I-284]
13,19 nM,COC(=O)Nc1ccc2c(c1)NCCCCC[C@H](NC(=O)/C=C/c1cc(Cl)ccc1-n1cnnn1)c1nc-2c(C(=O)N(C)C)[nH]1 [Example I-299]
14,9 nM,COC(=O)Nc1ccc2c(c1)NC(=O)CC/C=C/C[C@H](NC(=O)/C=C/c1cccc(Cl)c1)c1nc-2c(Cl)[nH]1 [Example I-309]
15,< 5 nM,COC(=O)Nc1ccc2c(c1)NC(=O)CC/C=C/C[C@H](NC(=O)/C=C/c1c(C(F)(F)F)ccc(Cl)c1F)c1nc-2c(Cl)[nH]1 [Example I-311]
16,< 5 nM,COC(=O)Nc1ccc2c(c1)NC(=O)CC/C=C/C[C@H](NC(=O)c1ccc(C(=N)N)cc1)c1cc-2ccn1 [II-3]
